Patent US8158442B2, “Antagonists of bitter taste receptors and uses thereof” (Deutsches Institut Fuer Ernaehrungsforschung …, priority 2007, dated 2012)

How the values were obtained:
TAS2R38 [1] = molecular target: T1, TAS2R38 (Homo sapiens, UniProt P59533, A49P/I296V); experiment: Calcium imaging (FLIPR) of TAS2R38 transfected cells, antagonists applied as mixture with TAS2R38 agonists; type: cell-based; conditions: for inhibition of the responses of TAS2R38 agonists: mixture with 0.03 mM PROP, 0.03 mM PTC or 1 mM MET, 20 mM DMTU, 5 mM DETU or 0.1 mM MBI, FIG. 3
T1 construct: expressed in transfected cells; host or cells: HEK-293T cells stably expressing the chimeric G-protein subunit G16gust44
T1 sequence (P59533 1-333 A49P/I296V): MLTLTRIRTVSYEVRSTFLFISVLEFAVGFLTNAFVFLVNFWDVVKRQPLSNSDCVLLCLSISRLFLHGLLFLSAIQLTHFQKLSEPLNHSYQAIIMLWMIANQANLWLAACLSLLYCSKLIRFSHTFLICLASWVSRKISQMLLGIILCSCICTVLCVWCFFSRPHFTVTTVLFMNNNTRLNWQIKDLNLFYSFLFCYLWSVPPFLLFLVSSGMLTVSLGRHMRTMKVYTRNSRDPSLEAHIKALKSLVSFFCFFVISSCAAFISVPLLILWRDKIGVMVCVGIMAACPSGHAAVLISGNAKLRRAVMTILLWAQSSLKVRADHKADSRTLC
Source text: (§1) Human TAS2R38 cDNAs encoding the PAV form of the receptor was fused with a plasma membrane-targeting sequence of the rat somatostatin type 3 receptor at the N terminus of the recombinant polypeptide and a herpes simplex virus glycoprotein D (HSV) epitope at its C terminus (Bufe B., et al. (2002) Nat Genet 32:397-401). The constructs were transiently transfected into human embryonic kidney (HEK)-293T cells that stably express the chimeric G-protein subunit G16gust44 (Ueda T., et al. (2003) J Neurosci 23:7376-7380) using Lipofectamine 2000 (Invitrogen). They were then seeded at a density of ˜20-30% and transfected at ˜60% confluency in 96-well microtiter plate (Greiner) coated with 10 μg/ml Poly-D-lysine (Sigma-Aldrich). Calcium imaging experiments using an automated fluorometric imaging plate reader (FLIPR) (Molecular Devices) have been performed 24-32 h later essentially as described previously (Bufe B., et al. (2005) Curr. Biol. 15, 322-327). Tastants (Sigma-Aldrich) were dissolved and administered in the following solution: 130 mM NaCl, 5 mM KCl, 10 mM HEPES, 2 mM CaCl2, and 10 mM glucose, pH 7.4. Data were averaged over several independent experiments and processed with SigmaPlot (SPSS). For calculation of dose-response curves, the peak fluorescence responses after addition of compounds were corrected for and normalized to background fluorescence (ΔF/F=(F−F0)/F0), and baseline noise was subtracted.
To test whether dimethylthiourea, diethylthiourea and mercaptobenzimidazole are capable of inhibiting the response of other TAS2R38 agonists we next tested them as mixtures with the structurally divergent TAS2R38 agonists propylthiouracil, phenylthiourea and methimidazole.
To further investigate the mechanism of the inhibition of TAS2R38 we examined the effect of increasing diethylthiourea concentrations on the dose response curves of propylthiouracil and phenylthiourea (FIG. 5). […] Thus, the likeliest explanation for the observed right shift in the EC50 values caused by negative cooperativity of the inhibitor binding site on the agonist binding site of PROP and PTC.

hTAS2R16 = molecular target: T2, hTAS2R16 (Homo sapiens, UniProt Q9NYV7); experiment: Calcium imaging of hTAS2R16 transfected cells stimulated with salicin, specificity test; type: cell-based; conditions: 10 mM DMTU, 5 mM DETU or 0.1 mM MBI, FIG. 4
T2 construct: expressed in transfected cells
T2 sequence (Q9NYV7 1-291): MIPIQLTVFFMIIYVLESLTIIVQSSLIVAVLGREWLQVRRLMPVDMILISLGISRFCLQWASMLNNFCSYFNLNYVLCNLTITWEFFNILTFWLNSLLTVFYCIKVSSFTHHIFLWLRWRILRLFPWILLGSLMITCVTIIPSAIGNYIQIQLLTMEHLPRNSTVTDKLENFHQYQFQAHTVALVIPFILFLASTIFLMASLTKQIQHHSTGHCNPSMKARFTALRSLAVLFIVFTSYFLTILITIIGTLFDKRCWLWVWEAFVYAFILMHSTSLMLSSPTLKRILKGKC
Source text: as §1
(§2) In contrast to the observed effects on TAS2R38, the response of cells expressing hTAS2R16 or mTas2r5 to their cognate ligands salicin or cycloheximide was not altered by any of the three TAS2R38 antagonists in concentrations that inhibited response of TAS2R38 (FIG. 4).

mTas2r5 = molecular target: T3, mTas2r5 (Mus musculus, UniProt Q9JKT4); experiment: Calcium imaging of mTas2r5 transfected cells stimulated with cycloheximide, specificity test; type: cell-based, murine; conditions: 10 mM DMTU, 5 mM DETU or 0.1 mM MBI, FIG. 4
T3 construct: expressed in transfected cells
T3 sequence (Q9JKT4 1-300): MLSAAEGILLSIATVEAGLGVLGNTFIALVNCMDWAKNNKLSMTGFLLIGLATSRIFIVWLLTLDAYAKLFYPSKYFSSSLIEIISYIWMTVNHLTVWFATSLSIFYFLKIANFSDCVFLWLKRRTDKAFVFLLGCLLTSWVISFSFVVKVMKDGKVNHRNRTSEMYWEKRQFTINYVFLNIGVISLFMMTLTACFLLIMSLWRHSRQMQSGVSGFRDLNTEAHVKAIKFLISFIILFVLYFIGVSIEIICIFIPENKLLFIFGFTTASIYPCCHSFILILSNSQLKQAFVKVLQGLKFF
Source text: as §1, §2

TAS2R38 [2] = molecular target: T1, TAS2R38; experiment: Calcium imaging (FLIPR) of TAS2R38-PAV transfected HEK-293T G16gust44 cells, activation by compound alone; type: cell-based
Source text: as §1
During the structure-function-analysis of TAS2R38 agonists we identified and tested various compounds that contain an N—C═S moiety, which is a hallmark of TAS2R38 agonists. […] Two other compounds, dimethylthiourea and mercaptobenzimidazole that also have an N—C═S moiety (FIG. 1) could activate the receptor only at low to concentrations (EC50 of 0.5 mM for dimethylthiourea and 1.0 μM for mercaptobenzimidazole). Application of dimethylthiourea in concentrations above 3 mM led to a dose dependant reduction of the signal amplitude (FIG. 2).

[3] = TAS2R38-PAV transfected cells, compound alone, FIG. 2, read-out: EC50 (activation of the receptor)

SMILES	effect on signal amplitudes of the agonists (TAS2R38 [1]; increasing diethylthiourea concentrations, not abolished by increasing agonist concentrations)	inhibition of the responses of TAS2R38 agonists (TAS2R38 [1])	effect on response of hTAS2R16 expressing cells to salicin (hTAS2R16)	effect on response of mTas2r5 expressing cells to cycloheximide (mTas2r5)	activation of the receptor (TAS2R38 [2]; TAS2R38-PAV transfected cells, compound alone, FIG. 2)	concentrations at which the compound acts as agonist of hTAS2R38 (TAS2R38 [2])	EC50 (TAS2R38 [2]; [3]) [µM]	concentrations leading to a dose dependant reduction of the signal amplitude (TAS2R38 [2]; TAS2R38 expressing cells, compound alone, FIG. 2)	concentrations that pronouncedly reduced the response of TAS2R38 receptor expressing cells (TAS2R38 [2]; compound alone, FIG. 2)	EC50 (TAS2R38 [1]; EC50 (result obtained for propylthiouracil), +0.25 mM diethylthiourea) [µM]	EC50 (TAS2R38 [1]; EC50 (result obtained for propylthiouracil), +0.5 mM diethylthiourea) [µM]	EC50 (TAS2R38 [1]; EC50 of phenylthiourea, +0.25 mM diethylthiourea) [µM]	EC50 (TAS2R38 [1]; EC50 of phenylthiourea, +0.5 mM diethylthiourea) [µM]	EC50 (TAS2R38 [2]; EC50 (result obtained for propylthiouracil), alone, TAS2R38 transfected cells, FIG. 5) [µM]	EC50 (TAS2R38 [2]; EC50 of phenylthiourea, alone, TAS2R38 transfected cells, FIG. 5) [µM]
CCNC(=S)NCC [diethylthiourea, N,N′-diethylthiourea]	pronounced reduction of the signal amplitudes	inhibited the responses of all tested agonist	not altered	not altered	did not activate the receptor at any tested concentration	–	–	–	–	–	–	–	–	–	–
CNC(=S)NC [dimethylthiourea, N,N′-dimethylthiourea]	–	inhibited the responses of all tested agonist	not altered	not altered	–	below 3 mM	500	above 3 mM	–	–	–	–	–	–	–
Sc1nc2ccccc2[nH]1 [mercaptobenzimidazole, 2-mercaptobenzimidazole]	–	inhibited the responses of all tested agonist	not altered	not altered	–	below 0.01 mM	1	–	above 10 μM	–	–	–	–	–	–
NC(=S)Nc1ccccc1 [phenylthiourea, phenylthiocarbamide, reference compound]	–	–	–	–	–	–	–	–	–	3.4 ± 2.5	6.3 ± 3.9	2.8 ± 0.8	4.8 ± 1.8	1.1 ± 0.8	1.4 ± 0.9
